For data set [1], the target named is T1, THIK1 (K2P13.1) (Homo sapiens, UniProt Q9HB14, R92A).
T1 sequence (Q9HB14 1-408 R92A): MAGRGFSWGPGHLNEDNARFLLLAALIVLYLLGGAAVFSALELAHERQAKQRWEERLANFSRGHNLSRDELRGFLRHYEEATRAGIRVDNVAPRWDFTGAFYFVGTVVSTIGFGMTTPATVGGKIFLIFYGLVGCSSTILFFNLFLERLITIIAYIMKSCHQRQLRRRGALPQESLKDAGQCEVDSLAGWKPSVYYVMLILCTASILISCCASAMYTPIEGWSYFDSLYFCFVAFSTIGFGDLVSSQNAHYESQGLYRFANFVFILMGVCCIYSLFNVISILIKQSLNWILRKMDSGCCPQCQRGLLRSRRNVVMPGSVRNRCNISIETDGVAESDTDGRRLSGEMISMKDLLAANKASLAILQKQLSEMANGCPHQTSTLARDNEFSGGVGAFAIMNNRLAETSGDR
In words: TEVC electrophysiology dose–response, activation. It counts as cell-based.

Data set [2] has as its target T1, THIK1 (K2P13.1). In words: TEVC electrophysiology, activation. It counts as cell-based.
Data set [3] concerns the molecule itself. In words: cryo-EM structure.

Broadly, the EC50 is the concentration giving half of the maximal effect. A higher EC50 goes with weaker potency. As usually defined, the stoichiometry N is the number of molecules, sites or subunits per partner or assembly.

On to `CCCCC/C=C\C/C=C\CCCCCCCC(=O)O` [EIC, linoleic acid], for which it took 700 nM to reach a half-maximal effect in data set [1] (EC50). That is a sub-micromolar value. Turning to `CC/C=C\C/C=C\C/C=C\C/C=C\C/C=C\CCCC(=O)O` [EPA, eicosapentanoic acid], the “TEVC electrophysiology, activation” value in data set [2] was “α-LNL, eicosapentanoic acid (EPA), dihomo-γ-EIC (DGLA) and oleic acid (OA) also activated R92A”. Regarding `CCCCCCCC/C=C\CCCCCCCC(=O)O` [OA, oleic acid], the “TEVC electrophysiology, activation” value in data set [2] was “α-LNL, eicosapentanoic acid (EPA), dihomo-γ-EIC (DGLA) and oleic acid (OA) also activated R92A”.

B1: THIK1EM (human K2P13.1 (THIK1) residues 1-350, N59Q, N65Q) (domain or fragment, UniProt Q9HB14 1-350, looked up)
chain: MAGRGFSWGPGHLNEDNARFLLLAALIVLYLLGGAAVFSALELAHERQAKQRWEERLAQFSRGHQLSRDELRGFLRHYEEATRAGIRVDNVRPRWDFTGAFYFVGTVVSTIGFGMTTPATVGGKIFLIFYGLVGCSSTILFFNLFLERLITIIAYIMKSCHQRQLRRRGALPQESLKDAGQCEVDSLAGWKPSVYYVMLILCTASILISCCASAMYTPIEGWSYFDSLYFCFVAFSTIGFGDLVSSQNAHYESQGLYRFANFVFILMGVCCIYSLFNVISILIKQSLNWILRKMDSGCCPQCQRGLLRSRRNVVMPGSVRNRCNISIETDGVAESDTDGRRLSGEMISMK
In the case of B1, the “stoichiometry N” value in data set [3] stood at 2.

B2: THIK1EM-S136P (domain or fragment, human, UniProt Q9HB14 1-350, looked up)
chain: MAGRGFSWGPGHLNEDNARFLLLAALIVLYLLGGAAVFSALELAHERQAKQRWEERLAQFSRGHQLSRDELRGFLRHYEEATRAGIRVDNVRPRWDFTGAFYFVGTVVSTIGFGMTTPATVGGKIFLIFYGLVGCPSTILFFNLFLERLITIIAYIMKSCHQRQLRRRGALPQESLKDAGQCEVDSLAGWKPSVYYVMLILCTASILISCCASAMYTPIEGWSYFDSLYFCFVAFSTIGFGDLVSSQNAHYESQGLYRFANFVFILMGVCCIYSLFNVISILIKQSLNWILRKMDSGCCPQCQRGLLRSRRNVVMPGSVRNRCNISIETDGVAESDTDGRRLSGEMISMK
With B2, in data set [3], the binding result is “binds”.
